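Each compound was tested at five concentrations against cells in 96-well plates for 48 hours. TGI marks complete inhibition of growth.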
Assays:
Test in all cases: NCI-60 cell line screen, 48 h
786-0 renal = tested on: 786-0 renal
A498 renal = tested on: A498 renal
A549 NSCLC = tested on: A549 NSCLC
ACHN renal = tested on: ACHN renal
CAKI-1 renal = tested on: CAKI-1 renal
CCRF-CEM leukemia = tested on: CCRF-CEM leukemia
COLO 205 colon = tested on: COLO 205 colon
DLD-1 colon = tested on: DLD-1 colon
DMS 114 small cell lung = tested on: DMS 114 small cell lung
DMS 273 small cell lung = tested on: DMS 273 small cell lung
EKVX NSCLC = tested on: EKVX NSCLC
HCC-2998 colon = tested on: HCC-2998 colon
HCT-116 colon = tested on: HCT-116 colon
HCT-15 colon = tested on: HCT-15 colon
HL-60(TB) leukemia = tested on: HL-60(TB) leukemia
HOP-18 NSCLC = tested on: HOP-18 NSCLC
HOP-62 NSCLC = tested on: HOP-62 NSCLC
HOP-92 NSCLC = tested on: HOP-92 NSCLC
HT29 colon = tested on: HT29 colon
IGROV1 ovarian = tested on: IGROV1 ovarian
K-562 leukemia = tested on: K-562 leukemia
KM12 colon = tested on: KM12 colon
KM20L2 colon = tested on: KM20L2 colon
LOX IMVI melanoma = tested on: LOX IMVI melanoma
LXFL 529 NSCLC = tested on: LXFL 529 NSCLC
M14 melanoma = tested on: M14 melanoma
M19-MEL melanoma = tested on: M19-MEL melanoma
MALME-3M melanoma = tested on: MALME-3M melanoma
MOLT-4 leukemia = tested on: MOLT-4 leukemia
NCI-H226 lung = tested on: NCI-H226 lung
NCI-H23 lung = tested on: NCI-H23 lung
NCI-H460 lung = tested on: NCI-H460 lung
NCI-H522 lung = tested on: NCI-H522 lung
OVCAR-3 ovarian = tested on: OVCAR-3 ovarian
OVCAR-4 ovarian = tested on: OVCAR-4 ovarian
OVCAR-5 ovarian = tested on: OVCAR-5 ovarian
OVCAR-8 ovarian = tested on: OVCAR-8 ovarian
RPMI-8226 leukemia = tested on: RPMI-8226 leukemia
RXF 393 renal = tested on: RXF 393 renal
RXF-631 renal = tested on: RXF-631 renal
SF-268 CNS = tested on: SF-268 CNS
SF-295 CNS = tested on: SF-295 CNS
SK-MEL-2 melanoma = tested on: SK-MEL-2 melanoma
SK-MEL-28 melanoma = tested on: SK-MEL-28 melanoma
SK-MEL-5 melanoma = tested on: SK-MEL-5 melanoma
SK-OV-3 ovarian = tested on: SK-OV-3 ovarian
SN12C renal = tested on: SN12C renal
SNB-19 CNS = tested on: SNB-19 CNS
SNB-75 CNS = tested on: SNB-75 CNS
SNB-78 CNS = tested on: SNB-78 CNS
SR leukemia = tested on: SR leukemia
SW-620 colon = tested on: SW-620 colon
TK-10 renal = tested on: TK-10 renal
U251 CNS = tested on: U251 CNS
UACC-257 melanoma = tested on: UACC-257 melanoma
UACC-62 melanoma = tested on: UACC-62 melanoma
UO-31 renal = tested on: UO-31 renal
SF-539 CNS = tested on: SF-539 CNS
XF 498 CNS = tested on: XF 498 CNS

Measured: TGI

CCCCCCCCCCC(C)CCCCCCC(=O)OCC(COP(=O)([O-])OCC[N+](C)(C)C)OC(=O)CCCCCCC(C)CCCCCCCCCC (centres undefined)
not listed: SF-539 CNS | XF 498 CNS
> 100 µM: all other assays above

Cc1cccc(C)c1NC(=O)CCCC(=O)CC(=O)/C=C/c1ccccc1
not listed: EKVX NSCLC | HCC-2998 colon | HL-60(TB) leukemia | HOP-62 NSCLC | NCI-H226 lung | SF-295 CNS | SR leukemia
> 100 µM: all other assays above

— PubChem BioAssay (NCI)
